This passage reports zone of inhibition results from ChEMBL document CHEMBL1158359, “A novel and efficient one step synthesis of 2-amino-5-cyano-6-hydroxy-4-aryl pyrimidines and their anti-bacterial activity” (2009).

Holding throughout (type): functional
Settings in all cases: read-out: IZ

Experiment [1] relates to Escherichia coli. Briefly: Antibacterial activity against Escherichia coli at 250 ppm after 1 hr by agar well diffusion method. (In general: In agar diffusion tests the substance spreads into inoculated agar from a disc or well.)
The subject of experiment [2] is Staphylococcus aureus. Nature of the experiment: Antibacterial activity against Staphylococcus aureus at 750 ppm after 1 hr by agar well diffusion method.
The subject of experiment [3] is Escherichia coli. Briefly: Antibacterial activity against Escherichia coli at 500 ppm after 1 hr by agar well diffusion method.
The subject of experiment [4] is Escherichia coli. Nature of the experiment: Antibacterial activity against Escherichia coli at 750 ppm after 1 hr by agar well diffusion method.
Experiment [5] relates to Staphylococcus aureus. Briefly: Antibacterial activity against Staphylococcus aureus at 500 ppm after 1 hr by agar well diffusion method.
Experiment [6] deals with Staphylococcus aureus. Nature of the experiment: Antibacterial activity against Staphylococcus aureus at 250 ppm after 1 hr by agar well diffusion method.
Experiment [7] relates to Staphylococcus aureus. Nature of the experiment: Antibacterial activity against Staphylococcus aureus at 50 ppm after 1 hr by agar well diffusion method.
Experiment [8] has as its system Staphylococcus aureus. Nature of the experiment: Antibacterial activity against Staphylococcus aureus at 100 ppm after 1 hr by agar well diffusion method.

As for `N#Cc1c(O)nc(N)nc1-c1cccc(Cl)c1`, the zone of inhibition at 250 ppm with Escherichia coli [1] worked out at 4 mm. Besides, the figures for the zone of inhibition at 750 ppm in the experiment with Staphylococcus aureus [2] and in the experiment with Escherichia coli [4] were 5 mm and 11 mm, respectively. Besides, the zone of inhibition at 500 ppm with Escherichia coli [3] was found to be 7 mm.

On to `COc1cc(-c2nc(N)nc(O)c2C#N)cc(OC)c1OC`, for which, in the experiment with Staphylococcus aureus [2], the zone of inhibition at 750 ppm is 13 mm. Moreover, in the experiment on Staphylococcus aureus [5], the zone of inhibition at 500 ppm stood at 10 mm.

As for `N#Cc1c(O)nc(N)nc1-c1ccccc1[N+](=O)[O-]`, the zone of inhibition at 250 ppm in the experiment on Escherichia coli [1] stood at 3 mm. The zone of inhibition at 750 ppm in the experiment with Staphylococcus aureus [2] amounted to 15 mm; with Escherichia coli [4] it was 9 mm. Further, the zone of inhibition at 500 ppm came out at 12 mm with Staphylococcus aureus [5] and 5 mm in the experiment with Escherichia coli [3].

Turning to `N#Cc1c(O)nc(N)nc1-c1cccc([N+](=O)[O-])c1`, the zone of inhibition at 750 ppm with Staphylococcus aureus [2] was 14 mm. Further, the zone of inhibition at 250 ppm in the experiment with Staphylococcus aureus [6] came out at 4 mm. Besides, the zone of inhibition at 500 ppm with Staphylococcus aureus [5] was found to be 8 mm.

Take `N#Cc1c(O)nc(N)nc1-c1ccccc1Cl`: the figures for the zone of inhibition at 750 ppm in the experiment with Staphylococcus aureus [2] and in the experiment with Escherichia coli [4] were 14 mm and 10 mm, respectively. In addition, in the experiment on Staphylococcus aureus [6], the zone of inhibition at 250 ppm was 5 mm. Further, the zone of inhibition at 500 ppm in the experiment on Staphylococcus aureus [5] was found to be 9 mm; in the experiment on Escherichia coli [3], 8 mm.

In the case of `N#Cc1c(O)nc(N)nc1-c1ccc(O)cc1`, the figures for the zone of inhibition at 750 ppm with Staphylococcus aureus [2] and in the experiment on Escherichia coli [4] were 11 mm and 10 mm, respectively. Also, the zone of inhibition at 250 ppm in the experiment on Staphylococcus aureus [6] was 5 mm. Besides, the zone of inhibition at 500 ppm turned out to be 8 mm in the experiment with Staphylococcus aureus [5] and 6 mm with Escherichia coli [3].

On to `CN(C)c1ccc(-c2nc(N)nc(O)c2C#N)cc1`, for which the zone of inhibition at 250 ppm with Escherichia coli [1] stood at 4 mm; with Staphylococcus aureus [6] it was 7 mm. In addition, the zone of inhibition at 750 ppm in the experiment on Staphylococcus aureus [2] and in the experiment with Escherichia coli [4] was 11 mm throughout. Moreover, the figures for the zone of inhibition at 500 ppm in the experiment with Staphylococcus aureus [5] and with Escherichia coli [3] were 9 mm and 7 mm, respectively.

Consider `N#Cc1c(O)nc(N)nc1C/C=C/c1ccccc1`, for which, in the experiment with Escherichia coli [1], the zone of inhibition at 250 ppm came out at 7 mm. Further, the zone of inhibition at 750 ppm worked out at 9 mm in the experiment with Staphylococcus aureus [2] and 12 mm in the experiment with Escherichia coli [4]. For the same molecule, the zone of inhibition at 500 ppm was 5 mm in the experiment on Staphylococcus aureus [5] and 9 mm in the experiment on Escherichia coli [3].

Consider `COc1ccc(C2NC(=N)NC(=O)C2C#N)cc1` (stereo unspecified), for which, in the experiment with Staphylococcus aureus [2], the zone of inhibition at 750 ppm amounted to 5 mm.

For `N#Cc1c(O)nc(N)nc1-c1ccccc1`, the zone of inhibition at 750 ppm with Staphylococcus aureus [2] worked out at 18 mm. The zone of inhibition at 250 ppm with Staphylococcus aureus [6] amounted to 15 mm. The zone of inhibition at 50 ppm in the experiment with Staphylococcus aureus [7] was found to be 10 mm. Besides, the zone of inhibition at 100 ppm in the experiment with Staphylococcus aureus [8] worked out at 12 mm. In addition, in the experiment on Staphylococcus aureus [5], the zone of inhibition at 500 ppm was found to be 15 mm.
